The results in this text go back to BindingDB's records for doi:10.1016/j.bmcl.2005.03.029 (Duquesne University, 2005).

pIC50: −log10 of the molar value.

For this assay, the target named is T1, Dihydrofolate reductase (Escherichia coli (strain K12), UniProt O30463+P0ABQ4).
T1 sequence (P0ABQ4 whole entry): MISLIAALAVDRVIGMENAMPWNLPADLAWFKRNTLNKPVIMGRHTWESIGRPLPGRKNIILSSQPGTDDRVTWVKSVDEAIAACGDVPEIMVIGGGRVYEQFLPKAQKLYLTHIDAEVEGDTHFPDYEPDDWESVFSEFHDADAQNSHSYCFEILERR
T1 sequence (O30463 whole entry): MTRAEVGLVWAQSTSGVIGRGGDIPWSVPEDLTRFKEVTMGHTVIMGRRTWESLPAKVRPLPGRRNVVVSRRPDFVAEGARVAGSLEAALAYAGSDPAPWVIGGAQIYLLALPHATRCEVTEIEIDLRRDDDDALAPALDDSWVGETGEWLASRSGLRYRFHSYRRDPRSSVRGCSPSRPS
Briefly: Inhibitory concentration against Escherichia coli dihydrofolate reductase.

Turning to `CN(Cc1ccc2c(n1)C(N)N=C(N)N2)c1ccc(C(=O)NC(CCC(=O)O)C(=O)O)cc1` (stereo unspecified) [2-{4-[(2,4-Diamino-4,4a-dihydro-pyrido[3,2-d]pyrimidin-6-ylmethyl)-methyl-amino]-benzoylamino}-pentanedioic acid], the pIC50 (usually −log10 of the IC50, conventionally taken in molar units) was 3.18.
